For 18 compounds, IC50 results are on record in patent publication US20250197372A1 (priority 2020, published 2025).

Usually IC50 stands for the midpoint of a concentration-inhibition curve.

Like-named read-outs stand apart in the source and are kept apart here.

Common to all, as to type: biochemical
In experiment [1] the target is rat sucrase (partially purified alpha-glucosidase from intestinal rat powder) (Rattus norvegicus, UniProt P23739). The experiment can be described thus: Intestinal alpha-glucosidase assay, sucrose substrate (Glucose GO Kit). Summed up:
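Partially purified alpha-glucosidase from rat intestinal powder was preincubated 60 min at 37 °C with serial compound dilutions, then given maltose or sucrose and incubated 30 min at 37 °C.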

Experiment [2] has as its target T1, recombinant alpha-glucosidase I (human full-length glucosidase I, Glu 1) (Homo sapiens, UniProt Q13724).
T1 construct: 6-His (C); made in house; host or cells: HEK-293T cells transduced with BacMam virus (virus raised in Sf9)
T1 sequence (Q13724 1-837): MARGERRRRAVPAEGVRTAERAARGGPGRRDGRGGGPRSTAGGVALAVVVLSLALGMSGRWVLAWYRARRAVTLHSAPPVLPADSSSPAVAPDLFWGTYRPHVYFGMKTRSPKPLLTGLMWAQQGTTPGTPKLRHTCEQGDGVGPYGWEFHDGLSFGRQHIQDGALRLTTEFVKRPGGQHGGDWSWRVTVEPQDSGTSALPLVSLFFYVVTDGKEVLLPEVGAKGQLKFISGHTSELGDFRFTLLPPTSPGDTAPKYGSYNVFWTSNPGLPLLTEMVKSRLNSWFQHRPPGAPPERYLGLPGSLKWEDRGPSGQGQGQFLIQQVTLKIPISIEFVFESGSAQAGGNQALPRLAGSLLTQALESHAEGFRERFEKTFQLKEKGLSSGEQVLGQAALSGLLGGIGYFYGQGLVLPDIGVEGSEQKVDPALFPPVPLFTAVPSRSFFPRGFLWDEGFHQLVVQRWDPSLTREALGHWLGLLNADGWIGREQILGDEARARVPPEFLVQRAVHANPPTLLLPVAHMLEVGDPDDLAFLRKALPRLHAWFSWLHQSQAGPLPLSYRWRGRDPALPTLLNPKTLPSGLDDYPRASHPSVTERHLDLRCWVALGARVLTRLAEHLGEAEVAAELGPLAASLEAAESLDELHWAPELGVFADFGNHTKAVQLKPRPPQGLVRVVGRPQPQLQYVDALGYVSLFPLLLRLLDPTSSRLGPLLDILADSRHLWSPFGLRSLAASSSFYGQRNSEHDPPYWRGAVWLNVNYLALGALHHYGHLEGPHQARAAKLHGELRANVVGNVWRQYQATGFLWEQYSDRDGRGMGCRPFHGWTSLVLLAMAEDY
The experiment can be described thus: Alpha-glucosidase I assay (Amplex Red glucose detection, synthetic trisaccharide substrate). Summed up:
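Compound dilution series incubated 60 min at 37° C with recombinant His-tagged human glucosidase I ([…]), after which trisaccharide substrate analog was added for 90 min at 37° C. Reaction quenched with 1.5M Tris pH 8; D-glucose detected by Amplex Red fluorescence, 560/590 nm. 4-PL curve fit of percent inhibition gave IC50.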

Experiment [3] concerns the target recombinant human GAA (acid alpha-glucosidase) (Homo sapiens, UniProt P10253). The experiment can be described thus: Acid alpha-glucosidase (GAA) assay (4-methylumbelliferyl-alpha-D-pyranoside substrate, fluorescence). In a few lines:
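IC50 from 4-PL curve fit of percent inhibition, based on fluorescence (365/440 nm) of released methylumbelliferone relative to uninhibited enzyme. Compound dilutions and human GAA incubated 60 min, 37 °C, before 20 min substrate reaction at 37 °C, quenched at pH 10.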

Where [4] appears, read: Glucosidase 1, read-out: Glu 1 IC50.

Chain of rat sucrase (partially purified alpha-glucosidase from intestinal rat powder) (P23739 whole entry): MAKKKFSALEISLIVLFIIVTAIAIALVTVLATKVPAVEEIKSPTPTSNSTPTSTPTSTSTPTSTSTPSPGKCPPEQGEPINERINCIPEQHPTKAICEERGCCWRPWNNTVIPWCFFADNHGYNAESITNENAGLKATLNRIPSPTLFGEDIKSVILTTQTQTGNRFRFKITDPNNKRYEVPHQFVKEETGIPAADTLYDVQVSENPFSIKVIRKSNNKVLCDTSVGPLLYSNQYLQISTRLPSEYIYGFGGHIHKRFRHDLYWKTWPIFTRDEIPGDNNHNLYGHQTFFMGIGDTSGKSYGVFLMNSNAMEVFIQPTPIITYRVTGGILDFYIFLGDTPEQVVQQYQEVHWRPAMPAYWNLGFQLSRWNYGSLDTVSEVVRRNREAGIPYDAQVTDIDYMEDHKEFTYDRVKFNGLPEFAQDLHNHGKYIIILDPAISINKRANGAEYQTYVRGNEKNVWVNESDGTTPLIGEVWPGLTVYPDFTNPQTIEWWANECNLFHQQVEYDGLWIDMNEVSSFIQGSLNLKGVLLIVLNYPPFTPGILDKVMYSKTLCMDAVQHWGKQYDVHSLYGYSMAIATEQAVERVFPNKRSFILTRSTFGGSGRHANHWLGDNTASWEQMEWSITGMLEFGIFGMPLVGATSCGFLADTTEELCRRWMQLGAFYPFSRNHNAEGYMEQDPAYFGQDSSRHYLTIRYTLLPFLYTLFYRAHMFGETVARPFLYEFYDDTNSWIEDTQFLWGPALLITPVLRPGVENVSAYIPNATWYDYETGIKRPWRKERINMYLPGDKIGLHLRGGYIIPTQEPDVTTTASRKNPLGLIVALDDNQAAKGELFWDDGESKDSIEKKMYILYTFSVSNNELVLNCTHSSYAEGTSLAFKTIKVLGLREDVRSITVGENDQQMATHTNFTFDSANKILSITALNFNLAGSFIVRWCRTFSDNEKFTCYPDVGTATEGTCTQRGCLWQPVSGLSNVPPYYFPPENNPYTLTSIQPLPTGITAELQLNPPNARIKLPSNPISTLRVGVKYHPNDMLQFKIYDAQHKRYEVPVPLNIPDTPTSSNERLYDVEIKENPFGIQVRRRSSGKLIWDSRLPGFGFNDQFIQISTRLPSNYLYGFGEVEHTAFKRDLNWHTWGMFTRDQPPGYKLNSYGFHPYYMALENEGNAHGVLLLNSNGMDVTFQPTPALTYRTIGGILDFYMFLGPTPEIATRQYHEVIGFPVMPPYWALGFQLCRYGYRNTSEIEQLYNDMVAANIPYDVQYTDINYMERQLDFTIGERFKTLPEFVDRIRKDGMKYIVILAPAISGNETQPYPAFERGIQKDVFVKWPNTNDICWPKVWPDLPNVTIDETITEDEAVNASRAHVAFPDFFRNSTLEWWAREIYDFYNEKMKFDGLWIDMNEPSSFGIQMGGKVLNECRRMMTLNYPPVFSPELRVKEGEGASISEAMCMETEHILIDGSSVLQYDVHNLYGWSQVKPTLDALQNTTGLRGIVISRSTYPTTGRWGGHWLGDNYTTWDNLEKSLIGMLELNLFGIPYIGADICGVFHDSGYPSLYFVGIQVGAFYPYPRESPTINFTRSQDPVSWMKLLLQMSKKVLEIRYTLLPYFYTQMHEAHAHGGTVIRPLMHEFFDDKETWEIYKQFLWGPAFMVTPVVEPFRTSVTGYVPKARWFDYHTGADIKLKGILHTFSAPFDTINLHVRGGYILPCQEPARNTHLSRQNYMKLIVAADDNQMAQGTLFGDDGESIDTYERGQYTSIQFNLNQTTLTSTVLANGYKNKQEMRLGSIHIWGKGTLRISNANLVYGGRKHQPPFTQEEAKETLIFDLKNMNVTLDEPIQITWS

Take `C[C@@H]1CN(c2ccc(NCc3ccc(CN4C[C@H](O)[C@@H](O)[C@H](O)[C@H]4CO)cc3)c([N+](=O)[O-])c2)C[C@H](C)O1` [Compound 1014]: the IC50 in experiment [1] amounted to 15 nM; in experiment [2], 1 nM; in experiment [3], 30 nM.

Take `COc1cc(NCCCCCCN2C[C@H](O)[C@@H](O)[C@H](O)[C@H]2CO)cc(C2=CCCO2)c1` [Compound 1147, (2R,3R,4R,5S)-1-(6-{[3-(4,5-dihydrofuran-2-yl)-5-methoxyphenyl]amino}hexyl)-2-(hydroxymethyl)piperidine-3,4,5-triol]: the IC50 in experiment [1] came to 40 nM; in experiment [2] (setting [4]), 263 nM; in experiment [3], 38 nM.

For the compound `OC[C@@H]1[C@@H](O)[C@H](O)[C@@H](O)CN1CCc1ccc(CCNc2cc(Cl)cc(C3=CCOCC3)c2)cc1` [Compound 1160, (2R,3R,4R,5S)-1-{2-[4-(2-{[3-chloro-5-(3,6-dihydro-2H-pyran-4-yl)phenyl]amino}ethyl)phenyl]ethyl}-2-(hydroxymethyl)piperidine-3,4,5-triol], the 50% inhibitory concentration (IC50) in experiment [1] turned out to be 931 nM; in experiment [2] (setting [4]), 1570 nM; in experiment [3] it was 24 nM.

Regarding `CC(C)(C)c1cc(NCCCCCCN2C[C@H](O)[C@@H](O)[C@H](O)[C@H]2CO)cc(-c2ncccn2)c1` [Compound 1151, (2R,3R,4R,5S)-1-(6-{[3-tert-butyl-5-(pyrimidin-2-yl)phenyl]amino}hexyl)-2-(hydroxymethyl)piperidine-3,4,5-triol], the IC50 in experiment [1] was less than 1 nM; in experiment [2] (setting [4]) it was 99 nM; in experiment [3], 24 nM.

Consider `[N-]=[N+]=Nc1ccc(NCCNc2cc(Cl)cc(CCN3C[C@H](O)[C@@H](O)[C@H](O)[C@H]3CO)c2)c([N+](=O)[O-])c1` [Compound 1143, (2R,3R,4R,5S)-1-{2-[3-({2-[(4-azido-2-nitrophenyl)amino]ethyl}amino)-5-chlorophenyl]ethyl}-2-(hydroxymethyl)piperidine-3,4,5-triol], for which the figures for the IC50 in experiment [1], in experiment [2] (setting [4]) and in experiment [3] were 2010 nM, 334 nM and 796 nM, respectively.

Consider `COc1cc(NCCc2ccc(CCN3C[C@H](O)[C@@H](O)[C@H](O)[C@H]3CO)cc2)cc(C2=COCCO2)c1` [Compound 1155, (2R,3R,4R,5S)-1-{2-[4-(2-{[3-(5,6-dihydro-1,4-dioxin-2-yl)-5-methoxyphenyl]amino}ethyl)phenyl]ethyl}-2-(hydroxymethyl)piperidine-3,4,5-triol], for which the values for the IC50 in experiment [1], in experiment [2] (setting [4]) and in experiment [3] were 726 nM, 1250 nM and 455 nM, respectively.

With `[N-]=[N+]=Nc1ccc(NCCc2cc(CCN3C[C@H](O)[C@@H](O)[C@H](O)[C@H]3CO)ccc2C2CCCCC2)c([N+](=O)[O-])c1` [Compound 1171, (2R,3R,4R,5S)-1-[2-(3-{2-[(4-azido-2-nitrophenyl)amino]ethyl}-4-cyclohexylphenyl)ethyl]-2-(hydroxymethyl)piperidine-3,4,5-triol], the values for the half-maximal inhibitory concentration (IC50) in experiment [1], in experiment [2] (setting [4]) and in experiment [3] were 10700 nM, 301 nM and 2080 nM, respectively.

In the case of `COc1cc(NCCCCCCN2C[C@H](O)[C@@H](O)[C@H](O)[C@H]2CO)cc(C2CCCCC2)c1` [Compound 1148, (2R,3R,4R,5S)-1-{6-[(3-cyclohexyl-5-methoxyphenyl)amino]hexyl}-2-(hydroxymethyl)piperidine-3,4,5-triol], the IC50 in experiment [1] stood at 1 nM; in experiment [2] (setting [4]) it was 372 nM; in experiment [3], 88 nM.

Regarding `Cc1nc2cc(-c3ncccn3)ccc2n1CCCCCCN1C[C@H](O)[C@@H](O)[C@H](O)[C@H]1CO` [Compound 1339, (2R,3R,4R,5S)-2-(hydroxymethyl)-1-{6-[2-methyl-5-(pyrimidin-2-yl)-1H-1,3-benzodiazol-1-yl]hexyl}piperidine-3,4,5-triol], the results for the half-maximal inhibitory concentration (IC50) in experiment [1], in experiment [2] and in experiment [3] were 49 nM, 78 nM and 240 nM, respectively.

As to `COc1cc(-c2ncco2)ccc1NCCCCCCN1C[C@H](O)[C@@H](O)[C@H](O)[C@H]1CO` [Compound 1207, (2R,3R,4R,5S)-2-(hydroxymethyl)-1-(6-{[2-methoxy-4-(1,3-oxazol-2-yl)phenyl]amino}hexyl)piperidine-3,4,5-triol], the concentration for half-maximal inhibition (IC50) in experiment [1] was determined as 71 nM; in experiment [2] (setting [4]), 118 nM; in experiment [3], 75 nM.

Take `[N-]=[N+]=Nc1ccc(NCCc2nccc(CCN3C[C@H](O)[C@@H](O)[C@H](O)[C@H]3CO)n2)c([N+](=O)[O-])c1` [Compound 1188, (2R,3R,4R,5S)-1-[2-(2-{2-[(4-azido-2-nitrophenyl)amino]ethyl}pyrimidin-4-yl)ethyl]-2-(hydroxymethyl)piperidine-3,4,5-triol]: the IC50 was 783 nM in experiment [1], 762 nM in experiment [2] (setting [4]) and 838 nM in experiment [3].

Turning to `COc1cc(NCCc2ccc(CCN3C[C@H](O)[C@@H](O)[C@H](O)[C@H]3CO)cc2)cc(C2=CCOCC2)c1` [Compound 1154, (2R,3R,4R,5S)-1-{2-[4-(2-{[3-(3,6-dihydro-2H-pyran-4-yl)-5-methoxyphenyl]amino}ethyl)phenyl]ethyl}-2-(hydroxymethyl)piperidine-3,4,5-triol], the concentration for half-maximal inhibition (IC50) in experiment [1] was 2880 nM; in experiment [2] (setting [4]), 919 nM; in experiment [3] it was 296 nM.

For `CS(=O)(=O)c1cc(NCc2cccc(CN3C[C@H](O)[C@@H](O)[C@H](O)[C@H]3CO)c2)cc(-c2cccnn2)c1` [Compound 1040, (2R,3R,4R,5S)-2-(hydroxymethyl)-1-{[3-({[3-methanesulfonyl-5-(pyridazin-3-yl)phenyl]amino}methyl)phenyl]methyl}piperidine-3,4,5-triol], the IC50 in experiment [1] worked out at 126 nM; in experiment [2], 17 nM; in experiment [3] it was 1300 nM.

Regarding `COc1cc(C#N)cc(NCCc2ccc(CCN3C[C@H](O)[C@@H](O)[C@H](O)[C@H]3CO)cc2)c1` [Compound 1133, 3-methoxy-5-{[2-(4-{2-[(2R,3R,4R,5S)-3,4,5-trihydroxy-2-(hydroxymethyl)piperidin-1-yl]ethyl}phenyl)ethyl]amino}benzonitrile], the concentration for half-maximal inhibition (IC50) in experiment [1] was found to be 237 nM; in experiment [2] (setting [4]), 1280 nM; in experiment [3], 542 nM.

As for `CS(=O)(=O)c1cc(NCCCCCCN2C[C@H](O)[C@@H](O)[C@H](O)[C@H]2CO)cc(-c2ncccn2)c1` [Compound 1128, (2R,3R,4R,5S)-2-(hydroxymethyl)-1-(6-{[3-methanesulfonyl-5-(pyrimidin-2-yl)phenyl]amino}hexyl)piperidine-3,4,5-triol], the IC50 in experiment [1] came out at 39 nM; in experiment [2] (setting [4]), 116 nM; in experiment [3] it was 5 nM.

For `OC[C@@H]1[C@@H](O)[C@H](O)[C@@H](O)CN1CCc1ccc(CCNc2cc(Cl)cc(-c3ncon3)c2)cc1` [Compound 1113, (2R,3R,4R,5S)-1-{2-[4-(2-{[3-chloro-5-(1,2,4-oxadiazol-3-yl)phenyl]amino}ethyl)phenyl]ethyl}-2-(hydroxymethyl)piperidine-3,4,5-triol], the IC50 in experiment [1] is 74 nM; in experiment [2], 1010 nM; in experiment [3], 380 nM.

For `COc1cc(CN2CCCO2)cc(NCCCCCCN2C[C@H](O)[C@@H](O)[C@H](O)[C@H]2CO)c1` [Compound 1182, (2R,3R,4R,5S)-2-(hydroxymethyl)-1-[6-({3-methoxy-5-[(1,2-oxazolidin-2-yl)methyl]phenyl}amino)hexyl]piperidine-3,4,5-triol], the figures for the IC50 in experiment [1], in experiment [2] (setting [4]) and in experiment [3] were 179 nM, 47 nM and 33 nM, respectively.

For the compound `OC[C@@H]1[C@@H](O)[C@H](O)[C@@H](O)CN1CCc1ccc(CCNc2cc(Cl)cc(-c3ccco3)c2)cc1` [Compound 1159, (2R,3R,4R,5S)-1-{2-[4-(2-{[3-chloro-5-(furan-2-yl)phenyl]amino}ethyl)phenyl]ethyl}-2-(hydroxymethyl)piperidine-3,4,5-triol], the IC50 is 847 nM in experiment [1], 183 nM in experiment [2] (setting [4]) and less than 1 nM in experiment [3].
